These results are taken from PMC4785615, “Evidence that phospholipase C is involved in the antitumour action of NSC768313, a new thieno[2,3-b]pyridine derivative” (Cancer Cell International, 2016).

A value given as a limit tells only on which side of the number the result lay.

The subject of series [1] is MDA-MB-231 breast cancer cells. Nature of the series: DNA damage by γH2AX (flow cytometry, immunoblot). The conditions noted are these: MDA-MB-231, 1 μM, 24 h; for Proportion of cells with high γ-H2AX phosphorylation: basal level 1 %. Type of series: cell-based, human. The protocol: (§1) As described in detail previously, cells (10^6 cells per well) were grown in 6 well plates and incubated with inhibitors for the indicated time. Cells were harvested, washed and resuspended in 1 ml of blocking buffer (1 % FCS/PBS), and incubated with antibody to γ-H2AX (phosphorylated Ser139) (Millipore, USA) in blocking buffer (1:500 dilution) at room temperature for 2 h. Cells were washed, incubated with goat anti-mouse Alex 488 Fab fragment secondary antibody (Invitrogen, New Zealand) (1:400 in blocking buffer for 1 h, at room temperature; dark), washed and resuspended in 1 ml of blocking buffer containing RNase (1 μg/ml) and propidium iodide (PI) (10 μg/ml) for 30 min at room temperature. Cells were analysed in a Becton–Dickinson LSRII and profiles were analysed with ModFit LT 3 software.
As described in detail previously cells were grown to log-phase, washed twice with ice-cold PBS, and lysed in SDS lysis buffer according to the manufacturer’s protocol (Cell Signalling Technology, Danvers, MA, USA). Protein concentration was quantified using the BCA protein assay reagent bicinchoninic acid (Sigma, New Zealand). Cell lysates containing 25 μg of protein were separated by SDS-PAGE and transferred to PVDF membranes (Millipore). Membranes were immunoblotted with antibodies against to γ-H2AX (phosphorylated Ser139) (Millipore, USA), and actin (Millipore), using SuperSignalWest Pico (Thermo Scientific, Waltham,MA, USA) chemiluminescence reagents. Antibody reactivity was visualized using the chemiluminescence detection system by Fujifilm Las-3000.
Background: Flow cytometry measures light scatter and fluorescence of single cells or particles in a stream.

Series [2] deals with breast cancer cells. More on the design: method as in doi:10.1039/C3MD00290J. Particulars: earlier flow cytometry; cited from earlier work.
Series [3] has as its system MCF7. Nature of the series: Cell proliferation assay (3H-thymidine incorporation, 3 days). Format: cell-based. Particulars: Homo sapiens, 72 h, 3 days treatment, read-out: IC50 (50 % inhibition of growth). The method, then:
(§2) Culture conditions have been described in detail previously; human breast cancer cell lines MCF-7, T47D, MDA-MB-468, MDA-MB-231, human epithelial carcinoma cell line A431 and human colon cancer cell line HCT116 were purchased from the American Type Culture Collection (ATCC). Cells were grown in α-MEM containing 5 % fetal calf serum, insulin/transferrin/selenium supplement, added according to the manufacturer’s instructions (Roche), as well as penicillin/streptomycin (100 U/ml and 100 μg/ml, respectively).
(§3) As described in detail previously, cell proliferation was measured using a thymidine incorporation assay by seeding 3000 cells in each well using 96 well plates with varying concentrations of inhibitors for 3 days. Experiments were performed in triplicate with a minimum of two experimental repeats. Briefly, ^3H-thymidine (0.04 µCi) was added to each well and incubated for 5 h, after which the cells were gathered onto glass fibre filters using an automated TomTec harvester. Filters were incubated with Betaplate Scint and thymidine incorporation determined with Trilux/Betaplate counter showing the percentage of cells incorporated with ^3H-thymidine into the DNA helix.
A general note: Uptake of a labelled nucleoside into DNA is a usual measure of proliferation.

Series [4] relates to MDA-MB-468. The description is as above. The conditions noted are these: Homo sapiens, 72 h; MDA-MB-468, thymidine incorporation, 3 days treatment; read-out: IC50 (50 % inhibition of growth). Format: cell-based. The method, then: as §2, §3
The test system of series [5] is MDA-MB-231. The description is as above. The conditions noted are these: Homo sapiens, 72 h; MDA-MB-231, thymidine incorporation, 3 days treatment; read-out: IC50 (50 % inhibition of growth). Format: cell-based. The protocol: as §2, §3
Series [6] has as its system MDA-MB-231 breast cancer cells. Nature of the series: Microtubule imaging (anti-tubulin and Hoechst staining). Format: cell-based, human. The conditions noted are these: MDA-MB-231, 16 h; for Microtubule arrangement: FITC anti-tubulin staining. The method, then:
Cells were grown on a glass slide with and without inhibitors, fixed by 4 % paraformaldehyde, permeabilised by 0.5 % Triton X-PBS and incubated with 5 % BSA/PBS containing FITC-labelled anti-tubulin antibody. Microtubule arrangement was monitored by fluorescence staining of microtubules using anti-tubulin and analysed by fluorescent microscopy using Floid imaging station (460× magnification). Nucleus was stained with 2 μg/ml Hoechst stain (Life Technology) for 10 min at room temperature. Hoechst stain emits blue fluorescence when bound to double strand DNA.

In series [7] the test system is MDA-MB-231. Nature of the series: Combination growth inhibition with cytotoxic drugs (Bliss model). Format: cell-based, human. The method, then:
as §3
(§4) As described previously for everolimus and other inhibitors, we employed the Bliss additivism model to classify the drug combinations as additive, synergistic or antagonistic. A theoretical curve was calculated for combined inhibition using the equation Ebliss = (EA + EB) − (EA × EB), where EA and EB are the fractional inhibitions obtained by drug A alone and drug B alone at specific concentrations. Ebliss is the fractional inhibition that would be expected if the effects of the two drugs were additive. The difference (Bliss) in the experimentally measured fractional inhibition (Expt) and Ebliss are defined as synergism […], additive (Expt = Ebliss), and antagonism […]. Bliss = 0 would indicate the combination is additive; Bliss > 0 would indicate the percentage increase in maximal inhibition above additivity (synergy); and Bliss < 0 would indicate the percentage decrease in maximal inhibition below additivity (antagonism). The data were analysed using a one-way ANOVA coupled with multiple comparisons versus treatment control applying the Holm-Sidak method correction, where p < 0.05 denotes a statistically significant difference.

Series [8] concerns HCT116. The series is described as above. Type of series: cell-based, human. The conditions noted are these: HCT116, derivative 3 50 nM plus paclitaxel. The protocol:
as §3, §4

Series [9] relates to A431 cells. Nature of the series: Calcium flux assay (EGF-induced, Fluo-4). Format: cell-based, human. The conditions noted are these: pre-treatment at 25 and 50 μM, EGF 400 ng/ml. The method, then:
A431 cells were plated onto 96 wells until confluent. Cells were loaded with 5 µM Fluo-4 acetoxymethyl ester with 0.003 % pluronic acid and 2.5 mM Probenecid (Molecular Probes) for 30 min at 37 °C, then washed with buffer and incubated for another 30 min. Epidermal growth factor (EGF) (400 ng/ml) was used as an activator. EGF alone or with derivative 3 were added to A431 cells to determine the inhibitory activity on calcium flux of derivative 3, and compared with buffer (negative control) and 1 µg/ml ionomycin (positive control). Fluorescence signal was recorded from the bottom of the plate at 1 s intervals (3 wells per/s) using an EnSpire 2300 Multimode Plate Reader (Perkin-Elmer) at excitation wavelength of 494 nm and emission wavelength of 506 nm (25 °C, 3 mm measurement height, 50 flashes). Baseline fluorescence was recorded for 10 s, after which buffer alone, EGF alone or with drug, was added and fluorescence was captured for a further 45 s. Next, ionomycin was added and fluorescence was recorded for another 45 s. Three independent experiments were performed.
On the technique in general: Calcium assays in cells follow changes in intracellular calcium, usually with a dye or a luminescent sensor.

Series [10] in a line: Aqueous solubility. Type of series: physicochemical.
A short description of series [11]: Tolerability in mice after intraperitoneal injection. Format: in vivo. The conditions noted are these: 10 mg/Kg intraperitoneal injection, 20 % HP-β CD. The protocol:
(§5) Male CD-1 mice were obtained from Vernon Jansen Unit (University of Auckland) and housed in cages with a 12-hour light/dark cycle and received sterilized food and water ad libitum. Studies and procedures were conducted with prior approval of the Ethics Committee of the University of Auckland (AEC approval number 1190). Derivative 3 was prepared in 20 % HP-β CD as a fine yellow suspension, and administered (at 10 mg/Kg) as intraperitoneal bolus injection. Blood samples were collected via a terminal cardiac bleeding (n = 3 mice/time) at 0.167, 0.5, 1, 2 and 6 h post dose. Blood was collected in ice cold K2-EDTA tubes and kept on ice. All samples were centrifuged at 6500 rpm for 5 min at room temperature, obtained plasma were stored at −80 °C until analysed by LC–MS/MS.
Derivative 3 was chosen for a small pharmacokinetic study.

The test system of series [12] is MDA-MB-231 breast cancer cells. Put plainly: Cell cycle distribution by flow cytometry. Type of series: cell-based, human. The conditions noted are these: MDA-MB-231, 1 μM, 24 h. The method, then:
as §1

Series [13] can be described thus: Mouse plasma pharmacokinetics. Type of series: in vivo. The conditions noted are these: ip, male CD-1 mice, 10 mg/Kg intraperitoneal. The method, then:
as §5
Briefly, plasma samples were assayed for derivative 3 using liquid chromatography-tandem mass spectrometry (LC–MS/MS) method. Briefly, derivative 3 was spiked in the drug mouse plasma to obtain a concentration 0.003, 0.03, 0.3, 3, 10 and 30 µM to construct a calibration curve. Derivative 1 (a structural analogue of 3) was used as an internal standard in LC–MS/MS assay at a concentration of 0.5 μM added to acetonitrile. Drug was extracted from plasma using direct protein precipitation with ice cold acetonitrile (1:4 v/v) and quantified by peak area ratio of 3 versus 1 using a calibration curve prepared with derivative 3 as outlined above. LC–MS/MS used was Agilent 6410b with multimode ion source operated in atmospheric pressure chemical ionization (APCI) positive mode attached to an Agilent 1200 series HPLC system. LC–MS/MS used an Agilent Zorbax SB-C18 column (2.1 × 50 mm, 5 µM, USA) operated at 35 °C, at a flow rate 0.5 mL/min with a gradient consisting of 0.01 % formic acid in MilliQ water (Millipore, USA) and 0.01 % formic acid in 80 % acetonitrile-20 % MilliQ water. The MS1 and MS2 were operated at unit resolution in the multiple reaction monitoring (MRM) mode, monitoring the transition of the protonated molecular ions at m/z 368 to the product ions at m/z 245 for derivative 3 and monitoring the transition of the protonated molecular ions at m/z 372 to the product ions at m/z 245 for derivative 1 (internal standard). […] The lower limit of quantification for derivative 3 in plasma was 0.003 μM.
Mean mouse plasma-time data for derivative 3 was analysed with non-compartmental method using Phoenix WinNonlin 6.2 (Pharsight Corporation, Mountain View, CA) as shown in Table 1.

Series [14] relates to T47D. Nature of the series: Cell proliferation assay (3H-thymidine incorporation, 3 days). Format: cell-based, human. Particulars: 3 days treatment. The method, then:
as §2, §3

With `CC[C@@]1(O)C(=O)OCc2c1cc1n(c2=O)Cc2cc3ccccc3nc2-1` [camptothecin, reference compound], the “Proportion of cells with high γ-H2AX phosphorylation” value in series [1] worked out at 69%.

For `Nc1c(C(=O)Nc2cccc(Cl)c2)sc2nc3c(cc12)C(=O)CCC3` [derivative 1], the Cell cycle effect entry in series [2] was “caused G2/M arrest”.

As to `COc1cccc(NC(=O)c2sc3nc4c(cc3c2N)C(=O)CCC4)c1` [derivative 3], the IC50 in [3], in series [4] and in series [5] was < 100 nM throughout. For the same compound, the Cell morphology result in series [6] is reported as “membrane blebbing”. Moreover, the Microtubule arrangement entry in series [6] was “No microtubule bundles were observed”. The Nuclear phenotype entry in series [6] (Hoechst staining) was “abnormal nuclear phenotype and possessed multinuclear cells”. Besides, the “Drug interaction with camptothecin (Bliss)” value in [7] (MDA-MB-231, derivative 3 50 nM plus camptothecin) was “only additive effects”. Also, the “Drug interaction with doxorubicin (Bliss)” value in series [7] (MDA-MB-231, derivative 3 50 nM plus doxorubicin) is given as “only additive effects”. The “Drug interaction with paclitaxel (Bliss)” value in series [7] (MDA-MB-231, derivative 3 50 nM plus paclitaxel) is given as “synergistic effect”; in [8] it was “Synergism”. Also, the “Effect on increase in intracellular calcium levels induced by EGF” value in series [9] is on record as “no effect”. Besides, the Aqueous solubility result in series [10] is “poor”. The Tolerability result in series [11] is recorded as “well tolerated with no acute reaction observed”. Further, in series [12], the Cell cycle effect result is given as “induce G2/M phase cell cycle arrest”. Moreover, the half-life in series [13] (male, CD-1, mouse, 10 mg/kg, read-out: t1/2 (elimination half-life)) was > 240 min. Also, the k el in [13] (mouse, 20 % HP-β CD suspension, read-out: Ke (elimination rate constant) (converted)) is 4.72e-06 s⁻¹. Further, in [13] (mouse, extrapolated to infinity), the AUC(0-inf) (commonly total exposure, with the tail of the curve extrapolated) is 0.19 µM·h. Further, in series [13] (mouse, post injection, read-out: Time of maximal plasma concentration (converted)), the Tmax was 30 min. In series [13] (mouse, read-out: Cmax (maximum concentration in plasma)), the Cmax came out at 87 nM. The AUC(0-t) in [13] (mouse, up to 6 h, read-out: AUC0–6 h) was 0.13 µM·h. For the same compound, the “DNA damage (γH2AX)” value in series [1] is reported as “did not initiate DNA damage”. In addition, in [1], the “Proportion of cells with high γ-H2AX phosphorylation” value is on record as 4%.

For `Nc1c(C(=O)Nc2cccc3ccccc23)sc2nc3c(cc12)C(=O)CCC3` [derivative 5], in series [14], the “IC50 (50 % inhibition of growth)” value is “not reached”.

Consider `CC(=O)O[C@H]1C(=O)[C@@]2(C)[C@H]([C@H](OC(=O)c3ccccc3)[C@]3(O)C[C@H](OC(=O)[C@H](O)[C@@H](NC(=O)c4ccccc4)c4ccccc4)C(C)=C1C3(C)C)[C@]1(OC(C)=O)CO[C@@H]1C[C@@H]2O` [paclitaxel, reference compound], for which the Microtubule arrangement entry in series [6] is “shortened and bundling of microtubules”.
